Laboratory results as given in US5741811A, “Polythiophene anti-tumor agents” (Purdue Research Foundation, priority 1996, dated 1998).
Like-named read-outs stand apart in the source and are kept apart here.

Legend:
Assay in all cases: NCI human tumor cell line panel growth inhibition
Type in all cases: cell-based
[1] = test system: NCI-H522 lung cancer cells; settings: read-out: Log10 GI50 (converted)
HOP-62 lung cancer cells = settings: Homo sapiens, read-out: Log10 GI50 (converted)
SNB-75 CNS cancer cells = settings: Homo sapiens, read-out: Log10 GI50 (converted)
[2] = test system: NCI-H322M lung cancer cells; settings: Homo sapiens, read-out: Log10 GI50 (converted)
[3] = test system: KM20L2 colon cancer cells; settings: Homo sapiens, KM-20L2, read-out: Log10 GI50 (converted)
[4] = test system: NCI-H460 lung cancer cells; settings: Homo sapiens, read-out: Log10 GI50 (converted)
HOP-18 lung cancer cells = settings: Homo sapiens, read-out: Log10 GI50 (converted)
HT29 colon cancer cells = settings: Homo sapiens, HT-29, read-out: Log10 GI50 (converted)
UO-31 renal cancer cells = settings: read-out: Log10 GI50 (converted)
[5] = test system: RXF-631 renal cancer cells; settings: Homo sapiens, read-out: Log10 GI50 (converted)
U251 CNS cancer cells = settings: Homo sapiens, U-251, read-out: Log10 GI50 (converted)
[6] = test system: A549/ATCC lung cancer cells; settings: Homo sapiens, read-out: Log10 GI50 (converted)
TK-10 renal cancer cells = settings: Homo sapiens, read-out: Log10 GI50 (converted)
UACC-257 melanoma cells = settings: Homo sapiens, read-out: Log10 GI50 (converted)
[7] = test system: COLO-205 colon cancer cells; settings: Homo sapiens; COLO-205, colon cancer; read-out: Log10 GI50 (converted)
[8] = test system: OVCAR-8 ovarian cancer cells; settings: Homo sapiens, read-out: Log10 GI50 (converted)
Procedure: (§1) The first screen measures the cytotoxicity against a panel of sixty different human tumor cell lines. This assay provides data regarding the general cytotoxicity of an individual compound.
(§2) The length of a bar is indicative of differential cytotoxicity against a specific type of tumor cells or tumor panels.
(§3) The antitumor cytotoxicity of the thiophene compounds tested in the first two in vitro assays was measured by a microculture assay using either 3-(4,5-dimethylthiazol-2-yl)-2,5-diphenyltetrazolium bromide (MTT) or sulforhodamine B (SRB). [M. R. Boyd in "Principles and Practices of Oncology," V. T. DeVita, Jr., S. Hellman and S. A. Rosenberg (Eds.), Vol. 3, PPO Updates, Number 10, 1989.] This assay has an advantage over in vivo assay in that results are obtained within a week as opposed to several months. The assay was carried out in 96-well microtiter plates. The MTT assay is based on the production of a dark blue formazan product by dehydrogenase in the mitochondria of live tumor cells after exposure to drug for 6 days [M. C. Alley, D. A. Scudiero, A. Monks, M. L. Hursey, M. J. Czerwinski, D. L. Fine, B. J. Abbott, J. G. Mayo, R. H. Shoemaker and M. R. Boyd, Cancer Res., 48, 589, 1988.] Thus, only live cells are stained and can be measured at 570 nm. The SRB assay is based on the binding of the anionic group to the basic amino acid residues of cellular proteins after exposure of tumor cells to drug for 2 days [P. Skehan, R. Storeng, D. Scudiero, A. Monks, J. McMahon, D. Vistica, J. T. Warren, H. Bohesch, S. Kenney and M. R. Boyd, J. Nat. Cancer Inst., 82, 1107, 1990.] Thus, the total protein (viability) can be measured at 564 nm.

XP-498 CNS cancer cells = settings: read-out: Log10 GI50 (converted)
Procedure: as §1, §2, §3

[9] = test system: SW-620 colon cancer cells; settings: Homo sapiens, read-out: Log10 GI50 (converted)
Procedure: as §1, §2, §3

[10] = test system: LXPL-529 lung cancer cells; settings: Homo sapiens, read-out: Log10 GI50 (converted)
SF-295 CNS cancer cells = settings: read-out: Log10 GI50 (converted)
[11] = test system: HCT-15 colon cancer cells; settings: Homo sapiens, read-out: Log10 GI50 (converted)
[12] = test system: CAKI-1 renal cancer cells; settings: Homo sapiens
[13] = test system: RXF-393 renal cancer cells; settings: Homo sapiens, read-out: Log10 GI50 (converted)
786-0 renal cancer cells = settings: read-out: Log10 GI50 (converted)
[14] = test system: NCI-H226 lung cancer cells; settings: Homo sapiens, read-out: Log10 GI50 (converted)
[15] = test system: OVCAR-3 ovarian cancer cells; settings: Homo sapiens
[16] = test system: HCT-116 colon cancer cells; settings: Homo sapiens, read-out: Log10 GI50 (converted)
DLD-1 colon cancer cells = settings: Homo sapiens, read-out: Log10 GI50 (converted)
[17] = test system: OVCAR-5 ovarian cancer cells; settings: Homo sapiens, read-out: Log10 GI50 (converted)
ACHN renal cancer cells = settings: read-out: Log10 GI50 (converted)
[18] = test system: IGROV-1 ovarian cancer cells; settings: Homo sapiens, read-out: Log10 GI50 (converted)
A-498 renal cancer cells = settings: Homo sapiens, A498, read-out: Log10 GI50 (converted)
SK-MEL-2 melanoma cells = settings: read-out: Log10 GI50 (converted)
M-14 melanoma cells = settings: M14, read-out: Log10 GI50 (converted)
SF-268 CNS cancer cells = settings: read-out: Log10 GI50 (converted)
SN12C renal cancer cells = settings: read-out: Log10 GI50 (converted)
LOX IMVI melanoma cells = settings: read-out: Log10 GI50 (converted)
EKVX lung cancer cells = settings: read-out: Log10 GI50 (converted)
[19] = test system: SK-OV-3 ovarian cancer cells; settings: Homo sapiens, read-out: Log10 GI50 (converted)
MALME-3M melanoma cells = settings: read-out: Log10 GI50 (converted)
UACC-62 melanoma cells = settings: Homo sapiens, read-out: Log10 GI50 (converted)
[20] = test system: NCI-H23 lung cancer cells; settings: read-out: Log10 GI50 (converted)
[21] = test system: HCC-2998 colon cancer cells; settings: Homo sapiens, read-out: Log10 GI50 (converted)

Row | SMILES | GI50 [1] | GI50 (HOP-62 lung cancer cells) | GI50 (SNB-75 CNS cancer cells) | GI50 [2] | GI50 [3] | GI50 [4] | GI50 (HOP-18 lung cancer cells) | GI50 (HT29 colon cancer cells) | GI50 (UO-31 renal cancer cells) | GI50 [5] | GI50 (U251 CNS cancer cells) | GI50 [6] | GI50 (TK-10 renal cancer cells) | GI50 (UACC-257 melanoma cells) | GI50 [7] | GI50 [10] | GI50 (SF-295 CNS cancer cells) | GI50 [11] | GI50 [13] | GI50 (786-0 renal cancer cells) | other results
1 | OCc1ccc(-c2cccs2)s1 | 95.5 µM | 9.77 µM | 0.389 µM | 30.2 µM | 1.58 µM | 1.35 µM | 10.5 µM | 8.51 µM | 38.9 µM | 0.813 µM | 0.457 µM | 8.91 µM | 0.234 µM | 0.933 µM | 3.63 µM | 0.288 µM | 38 µM | 35.5 µM | 57.5 µM | 32.4 µM | GI50 [8]: 52.5 µM; GI50 (XP-498 CNS cancer cells): 3.72 µM; GI50 [9]: 4.68 µM; GI50 ([12]; CAKI-1, read-out: Log10 GI50 (converted)): 0.224 µM; GI50 [14]: 0.316 µM; GI50 ([15]; OVCAR-3, read-out: Log10 GI50 (converted)): 2.34 µM; GI50 [16]: 4.57 µM; GI50 (DLD-1 colon cancer cells): 0.316 µM; GI50 [17]: 12.9 µM
2 | CC(=O)OCc1ccc(-c2ccc(-c3cccs3)s2)s1 | 13.2 µM | 24 µM | < 0.01 µM | 19.5 µM | 0.132 µM | 1.51 µM | 2.34 µM | 30.2 µM | 18.6 µM | < 0.01 µM | < 0.01 µM | 6.61 µM | 0.12 µM | 0.0933 µM | 0.437 µM | < 0.01 µM | 18.2 µM | 50.1 µM | 18.2 µM | 18.6 µM | GI50 (ACHN renal cancer cells): 17.8 µM; GI50 [18]: 5.01 µM; GI50 (A-498 renal cancer cells): 0.0437 µM; GI50 (SK-MEL-2 melanoma cells): 72.4 µM; GI50 (M-14 melanoma cells): 39.8 µM; GI50 (SF-268 CNS cancer cells): 24.5 µM; GI50 (SN12C renal cancer cells): 28.8 µM; GI50 (LOX IMVI melanoma cells): 24 µM; GI50 (EKVX lung cancer cells): 24.5 µM; GI50 [19]: 91.2 µM; GI50 (MALME-3M melanoma cells): 32.4 µM; GI50 ([12]; CAKI-1, renal cancer, read-out: Log10 GI50 (converted)): 0.0182 µM; GI50 (UACC-62 melanoma cells): 17 µM; GI50 [20]: 19.5 µM; GI50 [14]: 0.324 µM; GI50 ([15]; OVCAR-3, ovarian cancer, read-out: Log10 GI50 (converted)): 0.0257 µM; GI50 (DLD-1 colon cancer cells): < 0.01 µM; GI50 [21]: 24.5 µM; GI50 [17]: 26.3 µM
